Results from ChEMBL document CHEMBL1201862, “PubChem BioAssay data set” (2004).
Calls of active or inactive are those of the source.

How the values were obtained:
[1] = target: T1, Intestinal-type alkaline phosphatase (Homo sapiens, UniProt P09923); assay: activation of human intestinal alkaline phosphatase – biochemical, luminescent, uHTS hits, set 2, dose response (AID 488817); type: functional;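 note: potency of activators that raise enzyme activity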
[2] = target: Glyceraldehyde-3-phosphate dehydrogenase (Homo sapiens, UniProt P04406)
Chain of Glyceraldehyde-3-phosphate dehydrogenase (P04406 whole entry): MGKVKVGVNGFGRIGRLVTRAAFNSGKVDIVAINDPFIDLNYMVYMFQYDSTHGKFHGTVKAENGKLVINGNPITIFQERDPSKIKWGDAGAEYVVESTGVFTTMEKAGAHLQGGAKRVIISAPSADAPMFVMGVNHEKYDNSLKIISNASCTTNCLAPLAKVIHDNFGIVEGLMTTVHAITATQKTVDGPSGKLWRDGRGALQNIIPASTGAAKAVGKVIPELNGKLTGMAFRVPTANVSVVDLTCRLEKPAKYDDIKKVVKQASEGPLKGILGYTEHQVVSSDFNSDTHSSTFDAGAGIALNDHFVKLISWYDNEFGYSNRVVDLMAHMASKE

[3] = target: T2, Intestinal-type alkaline phosphatase (Mus musculus, UniProt P24822); assay: PubChem AID 488874; type: functional
T2 sequence (P24822 whole entry): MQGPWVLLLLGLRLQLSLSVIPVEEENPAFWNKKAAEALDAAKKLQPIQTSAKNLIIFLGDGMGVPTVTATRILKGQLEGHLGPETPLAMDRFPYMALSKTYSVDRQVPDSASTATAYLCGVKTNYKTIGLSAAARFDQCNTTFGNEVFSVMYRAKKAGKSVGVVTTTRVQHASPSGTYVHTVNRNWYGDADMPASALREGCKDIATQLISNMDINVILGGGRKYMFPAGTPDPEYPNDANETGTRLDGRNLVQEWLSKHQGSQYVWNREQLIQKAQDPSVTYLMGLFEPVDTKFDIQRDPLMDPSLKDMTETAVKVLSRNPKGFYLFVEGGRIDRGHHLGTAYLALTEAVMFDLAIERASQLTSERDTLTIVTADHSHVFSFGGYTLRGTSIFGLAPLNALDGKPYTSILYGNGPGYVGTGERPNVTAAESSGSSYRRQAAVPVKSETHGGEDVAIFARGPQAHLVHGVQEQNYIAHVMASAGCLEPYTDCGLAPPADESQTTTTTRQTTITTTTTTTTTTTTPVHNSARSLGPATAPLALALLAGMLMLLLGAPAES

[4] = target: Alkaline phosphatase, placental type (Homo sapiens, UniProt P05187); assay: human placental alkaline phosphatase inhibition – biochemical, luminescence, confirmation (AID 1512); type: functional
Chain of Alkaline phosphatase, placental type (P05187 whole entry): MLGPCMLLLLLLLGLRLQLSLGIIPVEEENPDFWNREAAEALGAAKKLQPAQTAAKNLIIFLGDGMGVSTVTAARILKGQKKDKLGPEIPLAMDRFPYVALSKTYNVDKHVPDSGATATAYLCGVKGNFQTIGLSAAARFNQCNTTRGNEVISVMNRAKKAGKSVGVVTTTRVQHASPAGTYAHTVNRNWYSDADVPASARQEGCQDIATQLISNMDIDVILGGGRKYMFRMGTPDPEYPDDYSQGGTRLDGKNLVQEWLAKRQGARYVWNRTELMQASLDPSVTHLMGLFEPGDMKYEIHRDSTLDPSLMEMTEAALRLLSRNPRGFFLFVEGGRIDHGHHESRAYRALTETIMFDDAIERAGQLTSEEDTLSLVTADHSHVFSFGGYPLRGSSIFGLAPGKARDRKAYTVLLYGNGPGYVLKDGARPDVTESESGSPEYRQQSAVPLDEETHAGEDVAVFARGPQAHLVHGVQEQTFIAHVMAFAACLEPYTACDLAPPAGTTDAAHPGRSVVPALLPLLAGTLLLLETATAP

[5] = target: T1, Intestinal-type alkaline phosphatase; assay: human intestinal alkaline phosphatase activators, dose response, biochemical, luminescence, uHTS hits (AID 463120); type: functional
Streptococcus = assay: GAS UMAA2166 growth inhibition – luminescence, BacTiterGlo, counter-screen for streptokinase expression inhibitor project, dose response (AID 1915); type: functional, organism-based;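 note: potency for reduction of bacterial viability or growth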
[6] = target: T3, Runt-related transcription factor 1/Core-binding factor subunit beta (Homo sapiens, UniProt Q01196+Q13951); assay: disruptors of Runt domain/CBFb-SMMHC interaction – biochemical, FRET, Cerulean-Runt, Venus-CBFb-SMMHC, uHTS, […] (AID 1434); type: protein assay
T3 sequence (Q01196 whole entry, the tested form may be a part): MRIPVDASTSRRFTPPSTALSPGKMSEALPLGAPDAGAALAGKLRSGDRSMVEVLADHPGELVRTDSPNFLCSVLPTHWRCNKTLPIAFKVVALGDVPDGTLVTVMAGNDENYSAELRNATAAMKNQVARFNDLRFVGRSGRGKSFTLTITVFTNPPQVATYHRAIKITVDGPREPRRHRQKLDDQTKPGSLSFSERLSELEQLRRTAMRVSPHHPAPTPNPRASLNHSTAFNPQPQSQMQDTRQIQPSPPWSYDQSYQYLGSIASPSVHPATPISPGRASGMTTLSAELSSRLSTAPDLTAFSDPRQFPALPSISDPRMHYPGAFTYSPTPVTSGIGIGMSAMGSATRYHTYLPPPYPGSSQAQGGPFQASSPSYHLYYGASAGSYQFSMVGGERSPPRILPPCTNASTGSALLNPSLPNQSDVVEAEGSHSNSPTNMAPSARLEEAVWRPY
T3 sequence (Q13951 whole entry, the tested form may be a part): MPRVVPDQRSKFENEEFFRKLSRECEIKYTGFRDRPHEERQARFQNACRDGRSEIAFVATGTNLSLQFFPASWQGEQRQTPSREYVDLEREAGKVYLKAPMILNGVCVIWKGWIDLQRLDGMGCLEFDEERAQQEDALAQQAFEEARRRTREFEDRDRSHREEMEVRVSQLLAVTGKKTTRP

[7] = target: T3, Runt-related transcription factor 1/Core-binding factor subunit beta; assay: Runt domain/CBFb-SMMHC interaction disruptors – biochemical, TR-FRET (AID 1438); type: protein assay
[8] = system: Streptococcus sp. 'group A'; assay: Streptococcus pyogenes SK(-)GAS viability under kanamycin – luminescence, BacTiterGlo, confirmation, counter-screen for streptokinase expression inhibitor project, dose response (AID 1900); type: functional, organism-based
[9] = target: G-protein coupled receptor 55 (Homo sapiens, UniProt Q9Y2T6); assay: selective activators of receptor GPR55 – imaging, U2OS cells, beta-arrestin-GFP redistribution, primary screen (AID 1961); type: functional
HEK293 [10] = assay: cells; type: functional, cell-based; settings: Homo sapiens
HEK293 [11] = assay: inhibition of NOD1-driven NF-kB reporter – cell-based, luminescence, uHTS, primary screen (AID 1578); type: functional; settings: Homo sapiens
[12] = reduction of Shn3 3'UTR-driven luciferase in osteoblasts – cell-based, Clone20 osteoblasts, firefly luciferase, cherry-picked, dose response (AID 624132); type: functional;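 note: firefly luciferase luminescence from reporter carrying the Shn3 3'UTR in osteoblasts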
HEK293 [13] = assay: cells; type: functional, cell-based; settings: Homo sapiens; remark: listed apart in the source
HEK293 [14] = assay: cells; type: functional, cell-based; settings: Homo sapiens; remark: listed apart in the source
[15] = target: Nucleotide-binding oligomerization domain-containing protein 2 (Homo sapiens, UniProt Q9HC29); assay: inhibition of NOD2-driven NF-kB reporter – cell-based, luminescence, uHTS, HEK293 (AID 1566); type: functional
Chain of Nucleotide-binding oligomerization domain-containing protein 2 (Q9HC29 whole entry, the tested form may be a part): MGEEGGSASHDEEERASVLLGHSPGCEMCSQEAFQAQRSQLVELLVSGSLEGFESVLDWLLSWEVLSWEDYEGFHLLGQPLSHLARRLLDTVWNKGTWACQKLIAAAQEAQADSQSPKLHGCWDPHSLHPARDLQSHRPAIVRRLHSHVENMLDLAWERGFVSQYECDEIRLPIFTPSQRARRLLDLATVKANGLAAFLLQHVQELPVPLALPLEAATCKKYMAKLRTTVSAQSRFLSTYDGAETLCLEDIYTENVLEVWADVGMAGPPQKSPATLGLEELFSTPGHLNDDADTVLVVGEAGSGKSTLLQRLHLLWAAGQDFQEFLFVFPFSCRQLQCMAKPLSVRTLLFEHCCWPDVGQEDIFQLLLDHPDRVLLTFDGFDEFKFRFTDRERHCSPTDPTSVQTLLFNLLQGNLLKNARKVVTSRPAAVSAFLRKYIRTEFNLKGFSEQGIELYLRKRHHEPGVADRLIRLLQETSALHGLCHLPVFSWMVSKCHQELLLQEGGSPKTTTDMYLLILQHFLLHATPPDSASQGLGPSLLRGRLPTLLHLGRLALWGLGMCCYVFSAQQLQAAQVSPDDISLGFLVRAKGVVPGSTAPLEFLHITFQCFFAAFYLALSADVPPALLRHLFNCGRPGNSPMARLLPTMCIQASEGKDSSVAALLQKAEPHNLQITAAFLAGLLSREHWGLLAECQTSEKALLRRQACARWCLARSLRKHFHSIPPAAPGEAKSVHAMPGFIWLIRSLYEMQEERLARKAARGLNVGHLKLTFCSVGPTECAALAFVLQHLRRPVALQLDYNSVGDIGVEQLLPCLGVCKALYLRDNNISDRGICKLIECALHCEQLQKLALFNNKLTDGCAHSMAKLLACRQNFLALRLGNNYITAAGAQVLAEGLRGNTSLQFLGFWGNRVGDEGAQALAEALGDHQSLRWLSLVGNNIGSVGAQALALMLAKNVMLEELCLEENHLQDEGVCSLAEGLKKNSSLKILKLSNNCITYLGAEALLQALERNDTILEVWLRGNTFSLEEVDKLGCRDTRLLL

[16] = non-specific 3'UTR reporter inhibition in Clone20-Shn3RL – cell-based, Renilla luciferase, cherry-picked, counter-screen for Shn3 inhibitor project, dose response (AID 624133); type: functional
[17] = general cell-killing toxicity readout – plate reader, dry powder samples, cytotoxicity control for PAX8 inhibitor project, dose response (AID 743021); type: functional, cell-based
HEK293 [18] = assay: NOD2 signaling inhibitors in MDP-stimulated cells, cell-based, uHTS, luminescence (AID 2001); type: functional; settings: Homo sapiens
[19] = loss of viability in HepG2 cells – cell-based, CellTiter-Glo, cherry-picked, cytotoxicity control for Shn3 inhibitor project, dose response (AID 624134); type: functional
Paired box protein Pax-8 = Paired box protein Pax-8 (Homo sapiens, UniProt Q06710); assay: PAX8 transcriptional activity inhibition in RMG-I – RMG-I cells, luciferase, cherry-pick, dose response (AID 687027); type: functional, cell-based;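 note: luciferase reporter driven by Pax8 target thyroperoxidase promoter measured by SteadyGlo luminescence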
[20] = NIH3T3 cell viability loss – ATP luminescence, mouse fibroblasts, counter-screen, dose response (AID 2010); type: functional, cell-based;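 note: cells exposed to compound for about 90 hours before reading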
[21] = Trypanosoma cruzi growth suppression in host cells – NIH3T3 host cells, beta-gal luminescence, confirmation (AID 2044); type: functional, cell-based;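 note: intracellular parasites grown in NIH/3T3 mouse fibroblasts as host cells; luminescent beta-galactosidase reporter signal from transgenic T. cruzi replicating inside host cells; inhibitors lower the luminescence signal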
Cytochrome P450 2D6 = Cytochrome P450 2D6 (Homo sapiens, UniProt P10635);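 note: CYP2D6 member of a cytochrome P450 panel assay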
Chain of Cytochrome P450 2D6 (P10635 whole entry): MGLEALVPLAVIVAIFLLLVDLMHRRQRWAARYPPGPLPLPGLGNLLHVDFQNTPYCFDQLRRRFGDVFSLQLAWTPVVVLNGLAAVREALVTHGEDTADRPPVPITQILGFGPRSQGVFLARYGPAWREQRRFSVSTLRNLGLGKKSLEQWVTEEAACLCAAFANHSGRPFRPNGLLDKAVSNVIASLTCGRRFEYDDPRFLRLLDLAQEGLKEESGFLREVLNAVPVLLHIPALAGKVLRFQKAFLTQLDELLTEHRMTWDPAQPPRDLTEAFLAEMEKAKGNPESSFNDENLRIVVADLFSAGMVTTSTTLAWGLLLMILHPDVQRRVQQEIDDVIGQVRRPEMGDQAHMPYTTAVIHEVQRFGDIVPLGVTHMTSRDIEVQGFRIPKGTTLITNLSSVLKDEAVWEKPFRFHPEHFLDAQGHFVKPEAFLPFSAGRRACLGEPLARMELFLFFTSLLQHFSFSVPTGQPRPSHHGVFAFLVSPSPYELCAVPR

[22] = Luminescence Cell-Based Dose Retest to Confirm Inhibitors of Cancer Stem Cells. [Related pubchem assays (depositor defined):AID2717, AID2721]; type: functional; settings: Homo sapiens
Ion channel NompC = Ion channel NompC (Danio rerio, UniProt Q7T1G6); assay: Dose response cell-based high-throughput screening assay for agonists of the transient receptor potential channel N1 (TRPN1). [Related pubchem assays (depositor defined):AID1424, AID1448]; type: functional
Mucolipin-3 = Mucolipin-3 (Homo sapiens, UniProt Q8TDD5); assay: Fluorescence counterscreen assay for […] agonists: dose response cell-based high-throughput screening assay to identify agonists of the transient receptor potential channel ML3 (TRPML3). [Related pubchem assays: 1424, 1448 ]; type: functional
Chain of Mucolipin-3 (Q8TDD5 whole entry): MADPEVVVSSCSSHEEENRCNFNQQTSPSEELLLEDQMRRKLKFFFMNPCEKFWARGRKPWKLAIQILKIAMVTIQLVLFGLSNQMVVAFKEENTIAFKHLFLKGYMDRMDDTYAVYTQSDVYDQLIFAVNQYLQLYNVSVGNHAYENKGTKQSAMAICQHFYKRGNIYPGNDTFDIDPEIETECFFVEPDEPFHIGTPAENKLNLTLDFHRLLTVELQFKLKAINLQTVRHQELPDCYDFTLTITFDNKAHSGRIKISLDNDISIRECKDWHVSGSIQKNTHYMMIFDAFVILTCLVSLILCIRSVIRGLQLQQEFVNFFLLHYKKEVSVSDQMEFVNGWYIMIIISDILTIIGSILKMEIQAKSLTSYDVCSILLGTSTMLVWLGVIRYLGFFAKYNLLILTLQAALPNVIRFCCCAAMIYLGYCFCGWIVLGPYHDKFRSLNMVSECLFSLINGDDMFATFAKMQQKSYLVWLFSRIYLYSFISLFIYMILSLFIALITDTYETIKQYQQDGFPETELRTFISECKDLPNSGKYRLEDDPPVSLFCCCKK

INS1 = assay: INS-1E survival protection against cytokine death – cell-based, luminescence, retest, dose response (AID 449756); type: functional; settings: Rattus norvegicus;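 note: cell death triggered by IL-1 beta plus TNF-alpha plus IFN-gamma mixture; protective hits raise ATP signal compared with cytokine alone wells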
Cytochrome P450 3A4 = Cytochrome P450 3A4 (Homo sapiens, UniProt P08684);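 note: CYP3A4 tested as one member of a cytochrome P450 panel screen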
[23] = target: T2, Intestinal-type alkaline phosphatase; assay: mouse intestinal alkaline phosphatase activators, dose response, biochemical, luminescence, uHTS hits (AID 488783); type: functional
[24] = target: T4, Alkaline phosphatase, tissue-nonspecific isozyme (Homo sapiens, UniProt P05186); assay: activation of tissue-nonspecific alkaline phosphatase – biochemical, TNAP isozyme, mouse IAP uHTS hits, selectivity assay for mouse IAP activator project, dose response (AID 488880); type: functional
T4 sequence (P05186 whole entry): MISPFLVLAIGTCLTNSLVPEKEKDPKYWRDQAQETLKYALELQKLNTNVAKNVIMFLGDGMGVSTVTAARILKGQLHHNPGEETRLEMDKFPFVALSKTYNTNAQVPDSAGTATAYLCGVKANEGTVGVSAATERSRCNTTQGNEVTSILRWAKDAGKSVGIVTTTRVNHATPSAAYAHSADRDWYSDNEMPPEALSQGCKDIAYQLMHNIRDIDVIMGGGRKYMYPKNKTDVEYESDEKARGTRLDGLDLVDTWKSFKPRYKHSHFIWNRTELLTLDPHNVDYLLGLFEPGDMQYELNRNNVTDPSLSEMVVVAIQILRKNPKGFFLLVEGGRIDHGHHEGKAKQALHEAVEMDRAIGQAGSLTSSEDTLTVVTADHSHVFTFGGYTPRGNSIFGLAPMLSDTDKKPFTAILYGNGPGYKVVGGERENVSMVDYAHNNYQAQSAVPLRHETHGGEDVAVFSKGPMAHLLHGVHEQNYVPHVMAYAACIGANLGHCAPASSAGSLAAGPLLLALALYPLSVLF

[25] = target: T1, Intestinal-type alkaline phosphatase; assay: activation of human intestinal alkaline phosphatase – biochemical, dose response (AID 488873); type: functional
Vero = assay: viability of Vero cells under compound – cytotoxicity control for flavivirus capping enzyme inhibitors (AID 588742); type: functional; settings: Chlorocebus sabaeus
Large T antigen = Large T antigen (Simian virus 40, UniProt P03070); type: functional, Betapolyomavirus macacae;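 note: Confirmatory-stage PubChem screen for compounds that inhibit SV40 T antigen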

T1 sequence (P09923 whole entry): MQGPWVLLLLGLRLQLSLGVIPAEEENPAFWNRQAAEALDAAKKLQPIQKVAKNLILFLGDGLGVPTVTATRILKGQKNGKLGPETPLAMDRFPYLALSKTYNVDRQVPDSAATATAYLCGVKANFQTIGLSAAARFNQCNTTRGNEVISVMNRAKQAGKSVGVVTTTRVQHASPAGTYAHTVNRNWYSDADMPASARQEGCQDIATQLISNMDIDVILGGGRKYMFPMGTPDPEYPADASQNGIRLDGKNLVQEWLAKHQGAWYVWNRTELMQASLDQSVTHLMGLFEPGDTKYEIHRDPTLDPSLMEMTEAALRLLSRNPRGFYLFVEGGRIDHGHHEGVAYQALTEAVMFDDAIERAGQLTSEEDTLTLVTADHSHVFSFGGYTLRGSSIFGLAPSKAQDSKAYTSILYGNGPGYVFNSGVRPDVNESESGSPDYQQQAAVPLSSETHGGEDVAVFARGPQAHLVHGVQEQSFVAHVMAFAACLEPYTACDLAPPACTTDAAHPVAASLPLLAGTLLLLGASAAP

Q: With Cc1cc(OCC(=O)Nc2nc[nH]n2)ccc1Cl as the compound, how does the EC50 [1] read?
A: 21 µM (active)

Q: What about the IC50 [2] of the same compound?
A: > 10 µM (inconclusive)

Q: What about the IC50 [3] of the same compound?
A: > 100 µM (inactive)

Q: What about the IC50 [4] of the same compound?
A: > 100 µM (inactive)

Q: What about the EC50 [5] of the same compound?
A: 10.7 µM (active)

Q: Which EC50 (Streptococcus) does the source give for COCCNC(=O)c1c(NC(=O)c2ccc(Br)o2)n(Cc2ccccc2)c2nc3ccccc3nc12 here?
A: 4.36 µM (active)

Q: What about the IC50 [6] of the same compound?
A: 2.14 µM (active)

Q: What about the IC50 [7] of the same compound?
A: > 100 µM (inactive)

Q: And the EC50 [8]?
A: 1.9 µM (active)

Q: For CCOc1ccc(C(=O)C(CCC(CN(C)C)C(=O)c2ccc(OCC)cc2)CN(C)C)cc1 (centres undefined), which EC50 [9] is on record?
A: > 32 µM (inactive)

Q: What about the IC50 (HEK293 [10]) of the same compound?
A: 1.53 µM (active)

Q: And the EC50 (HEK293 [11])?
A: 15.9 µM (active)

Q: What about the AC50 [12] of the same compound?
A: 1.61 µM (active)

Q: What about the IC50 (HEK293 [13]) of the same compound?
A: > 20 µM (inactive)

Q: And the IC50 (HEK293 [14])?
A: 6.72 µM (active)

Q: And the EC50 [15]?
A: > 20 µM (inactive)

Q: And the AC50 [16]?
A: 7.72 µM (active)

Q: And the AC50 [17]?
A: 36.7 µM (active)

Q: And the IC50 (HEK293 [18])?
A: 2.48 µM (active)

Q: What about the AC50 [19] of the same compound?
A: 6.77 µM (active)

Q: What about the AC50 (Paired box protein Pax-8) of the same compound?
A: 4.27 µM (active)

Q: What does the source list for COC(=O)c1cccc(NC(=O)Nc2ccc(Cl)c(Cl)c2)c1?
A: EC50 [20]: > 60 µM (inconclusive); EC50 [21]: 2.15 µM (active); AC50 (Cytochrome P450 2D6): 22.4 µM (inconclusive); AC50 [22]: 2.77 µM (active); EC50 (Ion channel NompC): > 29.9 µM (inactive); EC50 (Mucolipin-3): > 29.9 µM (not active); AC50 (INS1): 6.38 µM (active); AC50 (Cytochrome P450 3A4): 22.4 µM (inconclusive)

Q: Which results are given for O=C(CN1C(=O)/C(=C/c2ccco2)SC1=S)NC1CCS(=O)(=O)C1 (centres undefined)?
A: EC50 [23]: 2.03 µM (active); EC50 [24]: > 100 µM (inactive); EC50 [25]: > 100 µM (inactive); CC50 (Vero): > 40 µM (active); IC50 (Large T antigen): 85 µM (active)
